Experimental findings from patent US20050124562A1, “Bis-quinazoline compounds for the treatment of bacterial infections” (priority 2003, published 2005) are described below.

Holding throughout (type): cell-based
In assay [1] the test system is S. aureus, E. faecalis, S. pyogenes and S. pneumoniae. Briefly: Broth microdilution MIC (NCCLS), gram-positive strains. The settings on record: range against some strains of S. aureus, E. faecalis, S. pyogenes and S. pneumoniae; read-out: MIC. In short, it runs like this:
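MICs by broth microdilution per NCCLS M-7 A-6 against ATCC strains, including ORSA and VRE; MBCs determined for selected organisms. Serum effect assessed by repeating MIC tests with human serum present.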

A further assay has as its system M. catarrhalis. Briefly: Broth microdilution MIC (NCCLS), M. catarrhalis. The following applies: Moraxella catarrhalis; some strains of M. catarrhalis; read-out: MIC range. On the procedure:
(§1) Representative bis-quinazolines were tested for antibacterial activity using the […] microdilution method to determine their minimum inhibitory concentrations (MICs). All compounds were tested using standard methods in accordance with NCCLS guidelines (National Committee for Clinical Laboratory Standards. 2003. Methods for dilution antimicrobial susceptibility testing for bacteria that grow aerobically. Approved Standard M-7 A-6, NCCLS, Wayne, Pa.). The bacterial strains used in the susceptibility tests were obtained from the American Type Culture Collection (ATCC) and included resistant phenotypes such as oxacillin-resistant S. aureus (ORSA) and vancomycin-resistant enterococci (VRE). The minimum bactericidal concentrations (MBCs) were determined for selected organisms. The effect of protein binding on the antibacterial activity of representative bis-quinazolines were determined by conducting MIC tests in the presence of human serum.

A further assay has as its system H. influenzae. The assay can be described thus: Broth microdilution MIC (NCCLS), H. influenzae. The following applies: Haemophilus influenzae; some strains of H. influenzae. Here is the method:
as §1

Assay [2] concerns efflux mutants of E. coli. The assay can be described thus: Broth microdilution MIC (NCCLS), E. coli efflux mutants. The settings on record: Escherichia coli, read-out: MICs. On the procedure: as §1
Assay [3] deals with efflux mutants of P. aeruginosa. Briefly: Broth microdilution MIC (NCCLS), P. aeruginosa efflux mutants. The following applies: Pseudomonas aeruginosa, read-out: MICs. On the procedure:
as §1

Molecules are shown by their SMILES.

As for `COc1cc2nc(Nc3nc(O)c4cccc(F)c4n3)nc(C)c2cc1OC.O=C(O)C(F)(F)F` [Example 96, 2-(6,7-Dimethoxy-4-methyl-quinazolin-2-ylamino)-8-fluoro-quinazolin-4-ol trifluoroacetate salt], the MIC was 0.06 to 16 µg/mL in assay [1]; 2 to 64 µg/mL in the assay on M. catarrhalis; 16 to 32 µg/mL with H. influenzae; 16 to 64 µg/mL in assay [2]; 64 µg/mL in assay [3].
With `CCOc1cccc2c(O)nc(Nc3nc(C)c4cc(OC)c(OC)cc4n3)nc12.O=C(O)C(F)(F)F` [Example 97, 2-(6,7-Dimethoxy-4-methyl-quinazolin-2-ylamino)-8-ethoxy-quinazolin-4-ol trifluoroacetate salt], the MIC is 0.06 to 16 µg/mL in assay [1]; 2 to 64 µg/mL with M. catarrhalis; 16 to 32 µg/mL in the assay with H. influenzae; 16 to 64 µg/mL in assay [2]; 64 µg/mL in assay [3].
With `COc1cc(OC)c2nc(Nc3nc(O)c4cccc(F)c4n3)nc(C)c2c1.O=C(O)C(F)(F)F` [Example 98, 2-(6,8-Dimethoxy-4-methyl-quinazolin-2-ylamino)-8-fluoro-quinazolin-4-ol trifluoroacetate salt], the MIC is 0.06 to 16 µg/mL in assay [1]; 2 to 64 µg/mL in the assay with M. catarrhalis; 16 to 32 µg/mL in the assay on H. influenzae; 16 to 64 µg/mL in assay [2]; 64 µg/mL in assay [3].
For `COc1cc2nc(Nc3nc(O)c4c(OC)ccc(OC)c4n3)nc(C)c2cc1OC.O=C(O)C(F)(F)F` [Example 99, 2-(6,7-Dimethoxy-4-methyl-quinazolin-2-ylamino)-5,8-dimethoxy-quinazolin-4-ol trifluoroacetate salt], in that order: 0.06 to 16 µg/mL, 2 to 64 µg/mL, 16 to 32 µg/mL, 16 to 64 µg/mL and 64 µg/mL.
Consider `COCCOc1ccc2nc(Nc3nc(C)c4cc(OC)c(OC)cc4n3)nc(O)c2c1.O=C(O)C(F)(F)F` [Example 102, 2-(6,7-Dimethoxy-4-methyl-quinazolin-2-ylamino)-6-(2-methoxy-ethoxy)-quinazolin-4-ol trifluoroacetate salt], for which the MIC in assay [1] was 0.06 to 16 µg/mL; in the assay with M. catarrhalis, 2 to 64 µg/mL; against H. influenzae it was 16 to 32 µg/mL; in assay [2], 16 to 64 µg/mL; in assay [3], 64 µg/mL.
Regarding `COc1cc2c(C)nc(Nc3nc(O)c4cccc(F)c4n3)nc2cc1O.O=C(O)C(F)(F)F` [Example 104, 2-(8-Fluoro-4-hydroxy-quinazolin-2-ylamino)-6-methoxy-4-methyl-quinazolin-7-ol trifluoroacetate salt], the MIC is 0.06 to 16 µg/mL in assay [1]; 2 to 64 µg/mL with M. catarrhalis; 16 to 32 µg/mL against H. influenzae; 16 to 64 µg/mL in assay [2]; 64 µg/mL in assay [3].
Take `Cc1nc(Nc2nc(O)c3cccc(F)c3n2)nc2cc3c(cc12)OCCO3.O=C(O)C(F)(F)F` [Example 108, 8-Fluoro-2-(4-methyl-7,8-dihydro-[1,4]dioxino[2,3-g]quinazolin-2-ylamino)-quinazolin-4-ol trifluoroacetate salt]: the MIC was 0.06 to 16 µg/mL in assay [1]; 2 to 64 µg/mL in the assay with M. catarrhalis; 16 to 32 µg/mL in the assay on H. influenzae; 16 to 64 µg/mL in assay [2]; 64 µg/mL in assay [3].
Take `CCN(CC)CCOc1ccc2nc(Nc3nc(O)c4cccc(OC)c4n3)nc(C)c2c1.O=C(O)C(F)(F)F` [Example 115, 2-[6-(2-Diethylamino-ethoxy)-4-methyl-quinazolin-2-ylamino]-8-methoxy-quinazolin-4-ol trifluoroacetate salt]: the MIC in assay [1] is 0.06 to 16 µg/mL; in the assay on M. catarrhalis, 2 to 64 µg/mL; in the assay on H. influenzae, 16 to 32 µg/mL; in assay [2], 16 to 64 µg/mL; in assay [3], 64 µg/mL.
For `COc1cc2nc(Nc3nc(O)c4cc(N)cc(C)c4n3)nc(C)c2cc1OC.O=C(O)C(F)(F)F` [Example 120, 6-Amino-2-(6,7-dimethoxy-4-methyl-quinazolin-2-ylamino)-8-methyl-quinazolin-4-ol trifluoroacetate salt], the MIC in assay [1] was 0.06 to 16 µg/mL; in the assay with M. catarrhalis it was 2 to 64 µg/mL; with H. influenzae, 16 to 32 µg/mL; in assay [2], 16 to 64 µg/mL; in assay [3], 64 µg/mL.
The corresponding values for `COc1cc2nc(Nc3nc(O)c4cc(N(C)C)cc(C)c4n3)nc(C)c2cc1OC.O=C(O)C(F)(F)F` [Example 121, 2-(6,7-Dimethoxy-4-methyl-quinazolin-2-ylamino)-6-dimethylamino-8-methyl-quinazolin-4-ol trifluoroacetate salt] are 0.06 to 16 µg/mL, 2 to 64 µg/mL, 16 to 32 µg/mL, 16 to 64 µg/mL and 64 µg/mL.
Regarding `CCN(CC)CCOc1ccc2nc(Nc3nc(O)c4cc(N)cc(C)c4n3)nc(C)c2c1.O=C(O)C(F)(F)F` [Example 125, 6-Amino-2-[6-(2-diethylamino-ethoxy)-4-methyl-quinazolin-2-ylamino]-8-methyl-quinazolin-4-ol trifluoroacetate salt], the MIC in assay [1] is 0.06 to 16 µg/mL; with M. catarrhalis, 2 to 64 µg/mL; against H. influenzae, 16 to 32 µg/mL; in assay [2], 16 to 64 µg/mL; in assay [3], 64 µg/mL.
For `COc1cccc2c(C)nc(Nc3nc(O)c4cc(OCCN5CCC(O)C5)ccc4n3)nc12.O=C(O)C(F)(F)F` (centres unmarked) [Example 138, 6-[2-(3-Hydroxy-pyrrolidin-1-yl)-ethoxy]-2-(8-methoxy-4-methyl-quinazolin-2-ylamino)-quinazolin-4-ol trifluoroacetate salt], in that order: 0.06 to 16 µg/mL, 2 to 64 µg/mL, 16 to 32 µg/mL, 16 to 64 µg/mL and 64 µg/mL.
For `COc1cc(OC)c2nc(Nc3nc(O)c4cc(OCCN(C)CCO)ccc4n3)nc(C)c2c1.O=C(O)C(F)(F)F` [Example 140, 2-(6,8-Dimethoxy-4-methyl-quinazolin-2-ylamino)-6-{2-[(2-hydroxy-ethyl)-methyl-amino]-ethoxy}-quinazolin-4-ol trifluoroacetate salt], in that order: 0.06 to 16 µg/mL, 2 to 64 µg/mL, 16 to 32 µg/mL, 16 to 64 µg/mL and 64 µg/mL.
With `COc1cc2nc(Nc3nc(O)c4cc(OCCNC(CO)C(C)C)ccc4n3)nc(C)c2cc1OC.O=C(O)C(F)(F)F` (centres unmarked) [Example 142, 2-(6,7-Dimethoxy-4-methyl-quinazolin-2-ylamino)-6-[2-(1-hydroxymethyl-2-methyl-propylamino)-ethoxy]-quinazolin-4-ol Trifluoroacetate salt], the MIC was 0.06 to 16 µg/mL in assay [1]; 2 to 64 µg/mL with M. catarrhalis; 16 to 32 µg/mL against H. influenzae; 16 to 64 µg/mL in assay [2]; 64 µg/mL in assay [3].
On to `COc1cc(OC)c2nc(Nc3nc(O)c4cc(OCCNC(C)CO)ccc4n3)nc(C)c2c1.O=C(O)C(F)(F)F` (centres unmarked) [Example 143, 2-(6,8-Dimethoxy-4-methyl-quinazolin-2-ylamino)-6-[2-(2-hydroxy-1-methyl-ethylamino)-ethoxy]-quinazolin-4-ol trifluoroacetate salt], for which the MIC is 0.06 to 16 µg/mL in assay [1]; 2 to 64 µg/mL in the assay with M. catarrhalis; 16 to 32 µg/mL in the assay with H. influenzae; 16 to 64 µg/mL in assay [2]; 64 µg/mL in assay [3].
For `CCN(CC)CCOc1ccc2nc(Nc3nc(C)c4cc(OC)cc(OC)c4n3)nc(O)c2c1.O=C(O)C(F)(F)F` [Example 144, 6-(2-Diethylamino-ethoxy)-2-(6,8-dimethoxy-4-methyl-quinazolin-2-ylamino)-quinazolin-4-ol trifluoroacetate salt], the MIC in assay [1] was 0.06 to 16 µg/mL; in the assay on M. catarrhalis, 2 to 64 µg/mL; against H. influenzae, 16 to 32 µg/mL; in assay [2] it was 16 to 64 µg/mL; in assay [3] it was 64 µg/mL.
With `COc1cc2nc(Nc3nc(O)c4cc(OCCN5CCCCC5)ccc4n3)nc(C)c2cc1OC.O=C(O)C(F)(F)F` [Example 145, 2-(6,7-Dimethoxy-4-methyl-quinazolin-2-ylamino)-6-(2-piperidin-1-yl-ethoxy)-quinazolin-4-ol trifluoroacetate salt], the MIC was 0.06 to 16 µg/mL in assay [1]; 2 to 64 µg/mL with M. catarrhalis; 16 to 32 µg/mL in the assay on H. influenzae; 16 to 64 µg/mL in assay [2]; 64 µg/mL in assay [3].
For `COc1cc2nc(Nc3nc(O)c4cc(OCCN(C)C)ccc4n3)nc(C)c2cc1OC.O=C(O)C(F)(F)F` [Example 146, 2-(6,7-Dimethoxy-4-methyl-quinazolin-2-ylamino)-6-(2-dimethylamino-ethoxy)-quinazolin-4-ol trifluoroacetate salt], the MIC was 0.06 to 16 µg/mL in assay [1]; 2 to 64 µg/mL with M. catarrhalis; 16 to 32 µg/mL against H. influenzae; 16 to 64 µg/mL in assay [2]; 64 µg/mL in assay [3].
As for `COc1cc2nc(Nc3nc(O)c4cc(OCCN5CCN(C)CC5)ccc4n3)nc(C)c2cc1OC.O=C(O)C(F)(F)F` [Example 147, 2-(6,7-Dimethoxy-4-methyl-quinazolin-2-ylamino)-6-[2-(4-methyl-piperazin-1-yl)-ethoxy]-quinazolin-4-ol trifluoroacetate salt], the MIC in assay [1] was 0.06 to 16 µg/mL; in the assay on M. catarrhalis, 2 to 64 µg/mL; in the assay on H. influenzae, 16 to 32 µg/mL; in assay [2], 16 to 64 µg/mL; in assay [3], 64 µg/mL.
